# Source: PubChem BioAssay (NCI)
#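 The compound was tested at five concentrations on cells cultured in 96-well plates, with a 48-hour exposure period. TGI is the concentration that stops growth completely.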
# Legend:
# Assay in all cases: inhibition of tumour cell growth, NCI panel, 48 h
# [1] = test system: HOP-62 NSCLC
# [2] = test system: MDA-N
# [3] = test system: M14 melanoma
# [4] = test system: U251 CNS
# [5] = test system: UO-31 renal
# [6] = test system: TK-10 renal
# [7] = test system: T-47D breast
# [8] = test system: RPMI-8226 leukemia
# [9] = test system: NCI-H460 lung
# [10] = test system: HL-60(TB) leukemia
SMILES,TGI [1] [µM],TGI [2] [µM],TGI [3] [µM],TGI [4] [µM],TGI [5] [µM],TGI [6] [µM],TGI [7] [µM],TGI [8] [µM],TGI [9] [µM],TGI [10] [µM]
O=S(=O)(O)c1ccc2c(N=Nc3ccccc3Cl)c(O)ccc2c1,> 100,> 100,> 100,> 100,> 100,> 100,> 100,> 100,–,–
COc1ccc(N=C2C(=Nc3ccc(OC)cc3)N(S(=O)(=O)c3ccccc3)C(=S)N2c2ccc(OC)cc2)cc1,> 100,> 100,> 100,> 100,> 100,> 100,> 100,> 100,–,–
CC1C(c2ccc3c(c2)OCO3)c2cc3c(cc2OC1N1CCCCC1)OCO3 (stereo not given),> 100,48.6,> 100,–,> 100,> 100,> 100,> 100,> 100,–
Cc1ccc(O)c(-c2csc(NCN3CCN(CNc4nc(-c5cc(C)ccc5O)cs4)CC3)n2)c1,> 100,> 100,> 100,> 100,> 100,> 100,–,> 100,> 100,> 100
O=C(NCCCCNCCCNC(=O)c1cc(-c2ccccc2)nc2ccccc12)c1cc(-c2ccccc2)nc2ccccc12,3.02,3.23,–,3.32,3.21,2.93,–,6.33,3.39,–
CCOC(=O)COc1c(OC)cc(C2C3=C(COC3=O)Oc3cc4c(cc32)OCO4)cc1OC (stereo not given),> 100,–,> 100,81.9,> 100,20.9,17.7,0.954,49.4,0.539
NC12CC3CC4C1CC1CC2C(C3)C4(N)C1,> 100,> 100,> 100,> 100,> 100,> 100,> 100,–,> 100,> 100
COc1cc(/C=C/C(=O)N[C@@H]2C(=O)N3[C@@H]2SC(C)(C)[C@@H]3C(=O)O)cc(OC)c1OC,–,> 100,> 100,> 100,> 100,> 100,> 100,> 100,> 100,> 100
Cc1ccc(S(=O)(=O)/N=C(\[O-])C2=C(c3ccccc3)NN(C)c3nc4cccc[n+]4nc32)cc1,–,> 100,> 100,> 100,> 100,> 100,> 100,> 100,> 100,> 100
O=c1c(-c2ccccc2Cl)coc2cc(F)ccc12,62.2,25,55.6,35.3,> 100,> 100,> 100,–,> 100,31.2
CCc1n[nH]c(=O)n1NC(=O)c1ccccc1C(=O)O,> 100,> 100,> 100,> 100,> 100,> 100,–,> 100,–,–
Cc1cc(O)c(/C=N/c2nc(-c3cccc([N+](=O)[O-])c3)cs2)c(=O)o1,> 100,–,> 100,> 100,> 100,26.6,> 100,–,> 100,47.2
